Measurements published in patent publication US12391657B2, “Small molecules that bind and/or modulate differentforms of tau oligomers” (The Board of Regents of the University of Texas System, priority 2019, dated 2025).
“Also recorded” adds a separate entry of the source.

What was measured:
[1] = target: T1, recombinant tau oligomers (TauO) (Homo sapiens, UniProt P10636); assay: Atomic force microscopy of recombinant tau oligomers after compound treatment; details: 5 μM of curcumin derivatives
T1 construct: made in house
Experimental: (§1) Tau oligomers were characterized by AFM as previously described (Lasagna-Reeves, (2010)0. Briefly, samples were prepared by adding 10 μl tau oligomers in the absence and presence of AC on freshly-cleaved mica and were allowed to adsorb to the surface. Mica were then washed three times with distilled water to remove unbound protein and impurities followed by air-drying. Samples were then imaged with Multimode 8 AFM machine (Veeco, CA) using a non-contact tapping method (ScanAsyst-Air).
(§2) Compounds were dissolved in ETOH 75%/DMSO (5:1) at a final concentration of 5 mM and diluted in 1× PBS or ddH2O for incubation or toxicity assay (final concentration 5 μM). Tau oligomers in the presence of the small molecules and controls were incubated on an orbital shaker, without stirring, for 16 hours under oligomerization conditions as previously described (Lo Cascio and Kayed 2018).
as §1, with “(Lasagna-Reeves, Castillo-Carranza et al. 2010).” for “(Lasagna-Reeves, (2010)0.”, “absence or” for “absence and”

primary cortical neurons [2] = assay: MTT viability of primary cortical neurons exposed to TauO pre-incubated with compound; format: cell-based, Htau mice; details: 0.5 μM tau oligomers, 5 μM curcumin derivatives, 2 hours
Experimental: as §2
(§3) Human neuroblastoma SH-SY5Y cells were maintained in Dulbecco's modified Eagle's medium (DMEM) and grown to confluence in 96-well plates. […] Cells viability was corrected by the vehicle background. All measurements were performed in triplicate. The cytotoxic effect was determined using 3-(4,5-dimethylthiazol-2-yl)-2,5-diphenyltetrazolium bromide (MTT) assay for assessing cell viability following manufacturer's instructions. Optical density (OD) was measured at 490 nm with POLARstar OMEGA plate reader (BMG Labtechnologies). Cell viability was calculated as the percentage of the OD value of treated cells compared with untreated controls, according to the following equation: Viability=(OD SAMPLE/OD CONTROL)×100. Statistical analysis was based on one-way analysis of variance (ANOVA), performed using GraphPad Prism 6.01.
(§4) Primary cortical neurons from transgenic mice expressing human full-length tau were prepared and maintained as described previously (Beaudoin, Lee et al. 2012). Briefly, cortical neurons were isolated from embryos at embryonic day 16-18 using Accutase solution (Sigma). Dissociated neurons were plated at a density of […] in 96-well plates containing high glucose Dulbecco's Modified Eagle Medium (DMEM, Corning) supplemented with 2% B27 (Gibco), 10,000 units/mL penicillin, 10,000 μg/mL streptomycin , and 25 μg/mL Amphotericin B (Gibco). After 2 hours, plating medium was removed from cells and replaced with Neurobasal medium (Gibco) plus 2% B27, […] (Hyclone), 10,000 units/mL, 10,000 μg/mL streptomycin, and 25 μg/mL Amphotericin B supplement. Cells were grown for 10-12 days in vitro before experiments and 50% of media changes were performed every 3 days. […] The MTT viability assay was performed as previously described (Cell Toxicity Assay—MTT).

primary cortical neurons [3] = assay: MTT viability of primary cortical neurons exposed to Aβ oligomers pre-incubated with compound; format: cell-based, Htau mice; details: 0.5 μM Aβ oligomers, 5 μM curcumin derivatives
Experimental: Aβ oligomers (AβO) were prepared as previously described (Lasagna-Reeves, Castillo-Carranza et al. 2010) by dissolving 0.3 mg of Aβ pellet in 200 μL of hexafluoroisopropanol (HFIP) and incubating for 10-20 min at room temperature. The resulting solution was added to 700 μL of ddH2O in a siliconized Eppendorf tube with holes placed on top of the cap to allow the slow evaporation of HFIP. The samples were then stirred at 500 rpm using a Teflon-coated micro stir bar for 48 hours at room temperature in the fume hood.
as §2, with “Aβ” for “Tau”
as §3, §4

primary cortical neurons [4] = assay: MTT viability of primary cortical neurons exposed to PSP BDTOs with and without compound; format: cell-based, Htau mice; details: 0.5 μM BDTOs, CL3 final concentration 5 μM
Experimental: as §3
as §2, with “conditions.” for “conditions as previously described (Lo Cascio and Kayed 2018).”
(§5) Primary cortical neurons from transgenic mice expressing human full-length tau were prepared and maintained as described previously (Beaudoin, Lee et al. 2012). […]

primary cortical neurons [5] = assay: MTT viability of primary cortical neurons exposed to AD BDTOs with and without compound; format: cell-based, Htau mice; details: 0.5 μM BDTOs, CL3 final concentration 5 μM
Experimental: as §3
as §2, with “conditions.” for “conditions as previously described (Lo Cascio and Kayed 2018).”
as §5

PSP BDTOs = assay: Atomic force microscopy of PSP BDTOs with and without compound; details: with CL3
Experimental: as §1, with “(Lasagna-Reeves, Castillo-Carranza et al. 2010).” for “(Lasagna-Reeves, (2010)0.”, “absence or” for “absence and”
as §2, with “conditions.” for “conditions as previously described (Lo Cascio and Kayed 2018).”
(§6) Immunoprecipitated tau oligomers were characterized using various biochemical methods as previously described (Lasagna-Reeves 2012, Gerson, Castillo-Carranza et al. 2016). AFM was performed to visualize the morphologies of oligomeric assemblies of isolated proteins. Isolated oligomers (5 μL) were injected into an LC-6AD Shimadzu HPLC system fitted with a TSK-GEL G3000 SWXL (30 cm×7.8 mm) column, Supelco-808541 to determine the size of the isolated oligomers. PBS (pH 7.4) was used as the mobile phase with a flow rate of 0.5 mL/min. […]

AD BDTOs = assay: Atomic force microscopy of AD BDTOs with and without compound; details: with CL3
Experimental: as §1, with “(Lasagna-Reeves, Castillo-Carranza et al. 2010).” for “(Lasagna-Reeves, (2010)0.”, “absence or” for “absence and”
as §2, with “conditions.” for “conditions as previously described (Lo Cascio and Kayed 2018).”
as §6

primary cortical neurons [6] = assay: BDTOs with and without CL3 taken up by primary cortical neurons, Western blot of cytoplasmic fraction; format: cell-based; details: 0.5 μM DLB, AD and PSP BDTOs, 5 μM CL3, 24 hrs
Experimental: FIG. 15. Disease-relevant brain-derived tau oligomers with and without CL3 taken up by primary cortical neurons. Primary cortical neurons were exposed to 0.5 μM DLB, AD and PSP BDTOs in the presence and absence of 5 μM CL3 for 24 hrs. Tau levels are evaluated in the cytoplasmic fraction using the generic tau antibody, Total Tau. […] PSP show to more efficiently decrease monomeric tau in the cytoplasmic fraction as compared to DLB and AD. […] Data were compared by one-way analysis of variance (ANOVA) followed by Dunnett's multiple comparison test: Ctrl vs DLB, DLB+CL3, AD, AD+CL3, PSP, PSP+CL3: **p<0.01; ***p<0.001; ****p<0.0001. Bars and error bars represent the mean and standard deviation.

[7] = cited from earlier work
[8] = in vivo; cited from earlier work

T1 sequence (P10636 1-441 isoform P10636-8): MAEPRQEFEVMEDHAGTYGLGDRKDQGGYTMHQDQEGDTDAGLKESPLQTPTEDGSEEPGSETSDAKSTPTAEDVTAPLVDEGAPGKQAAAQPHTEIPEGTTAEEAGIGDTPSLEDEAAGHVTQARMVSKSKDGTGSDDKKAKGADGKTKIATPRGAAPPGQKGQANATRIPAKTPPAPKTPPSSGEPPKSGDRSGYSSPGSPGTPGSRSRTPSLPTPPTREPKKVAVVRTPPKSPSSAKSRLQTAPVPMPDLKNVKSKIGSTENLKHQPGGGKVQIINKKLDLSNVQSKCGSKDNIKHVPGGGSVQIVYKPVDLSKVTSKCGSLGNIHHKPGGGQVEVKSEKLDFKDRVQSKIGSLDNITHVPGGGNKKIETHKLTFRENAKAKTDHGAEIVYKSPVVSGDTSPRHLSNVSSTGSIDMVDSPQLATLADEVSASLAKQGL

SMILES | morphology and aggregation state of TauO by AFM [1] | viability of neuronal culture exposed to TauO pre-incubated with compound (primary cortical neurons [2]) | viability of neuronal culture exposed to AβO pre-incubated with compound (primary cortical neurons [3]) | PSP BDTOs-induced toxicity in primary neurons (cell viability) (primary cortical neurons [4]) | AD BDTOs-induced toxicity in primary neurons (cell viability) (primary cortical neurons [5]) | morphology and aggregation state of PSP BDTOs by AFM (PSP BDTOs) | morphology and aggregation state of AD BDTOs by AFM (AD BDTOs) | effect of BDTO pretreatment on tau levels in cytoplasmic fraction of primary neurons (primary cortical neurons [6]) | solubility in aqueous media [7] | bioavailability [8]
O=C(/C=C/c1ccc(F)cc1)C(=O)/C=C/c1ccc(F)cc1 [CL3] | converting TauO into much larger aggregates | significantly higher cells viability as compared to TauO alone | no changes in cells viability as compared to AβO alone | reduced PSP-derived tau oligomers toxicity; also recorded: able to rescue primary neurons from PSP BDTOs-induced toxicity; also recorded: modulates PSP BDTOs associated neurotoxicity | not be able to modulate and neutralize AD BDTOs-induced toxicity; also recorded: no effect in preventing AD BDTOs-induced toxicity | formation of larger tau aggregates | no morphological changes were observed | differently modulate their aggregation states |  | 
O=C(/C=C/c1ccc(Cl)cc1)COC(=O)/C=C/c1ccc(Cl)cc1 [Cal7] | converting TauO into much larger aggregates | significantly higher cells viability as compared to TauO alone | no changes in cells viability as compared to AβO alone |  |  |  |  |  |  | 
COc1cc(/C=C/C(=O)COC(=O)/C=C/c2ccc(O)c(OC)c2)ccc1O [Calebin-A] |  |  |  |  |  |  |  |  | poor solubity in water | low bioavailabity
COc1cc(/C=C/C(=O)OCC(=O)/C=C/c2ccc(OC)c(OC)c2)ccc1F [Cal9] | converting TauO into much larger aggregates | significantly higher cells viability as compared to TauO alone | no changes in cells viability as compared to AβO alone |  |  |  |  |  |  | 
CC(=O)/C=C/c1ccc(C)cc1 [HemiC9] | converting TauO into much larger aggregates | significantly higher cells viability as compared to TauO alone | no changes in cells viability as compared to AβO alone |  |  |  |  |  |  | 
